The text below walks through data of patent publication US7572770B2, “Use of an interleukin 1 receptor antagonist and/or pyrrolidinedithiocarbamate for the treatment or prophylaxis of type 2 diabetes” (University of Zurich, priority 2002, dated 2009).

For orientation: Kd means the free concentration of one partner at which half of the binding sites on the other are occupied at equilibrium, for simple one-to-one binding. What is called half-life is how long it takes for the measured level to halve.

For series [1], the system named is diabetes-prone Psammomys obesus. Description: Diabetes-prone Psammomys obesus on high-energy diet treated with phlorizin. The class given is in vivo. The text has this: Animals. Psammomys obesus of both sexes (age 2.0-3.5 months) from the diabetes-prone and diabetes-resistant lines of the Hebrew University colonies were obtained from Harlan (Jerusalem, Israel). After weaning, diabetes-prone Psammomys obesus were maintained on a low-energy diet containing 2.38 kcal/g (Koffolk, Petach Tikva, Israel) until the start of the experiments, whereas diabetes-resistant Psammomys obesus were maintained on a […] (Weizmann Institute, Rehovot, Israel) to identify animals that develop diabetes and exclude them from the study (˜30-40% of the animals in the diabetes-resistant colony). All non-fasted animals with random blood glucose concentrations <7.8 mmol/l (Glucometer Elite, Bayer Diagnostics, Elkart, Ind.) were considered nondiabetic. Diabetes-prone Psammomys obesus switched to a high-energy diet, received an injection of 0.4 g/kg phlorizin (Sigma) or solvent (40% propylene glycol) every 12 h and were killed after 8 days. Psammomys obesus were anesthetized with ketamine (Ketalar, Park-Davis, Gwent, U.K.) and exsanguinated by cardiac puncture. The pancreas was rapidly removed, and immersion-fixed in 10% phosphate-buffered formalin. The animal studies were approved by the Institutional Animal Care and Use Committee of the Hebrew University and the Hadassah Medical Organization.
Detection of IL-1β expressing β-cells. Pancreases from routine necropsies and pancreases from Psammomys obesus were immersion-fixed in formalin, followed by paraffin embedding. Sections were deparaffinized and rehydrated, and endogenous peroxidase blocked by submersion in 0.3% H2O2 for 15 min. Sections were then incubated in methanol for 4 min. After washing with PBS, cultured islets and isolated β-cells were fixed in 4% paraformaldehyde (30 min, room temperature) followed by permeabilisation with 0.5% triton X-100 (4 min, room temperature). Both tissue sections and cultured cells were double-labeled for IL-1β and insulin by 1 h exposure to 10% bovine serum albumin, followed by incubation (1 h, 37° C.) with mouse anti-IL-1β antibody (1:30 dilution, R&D Systems Inc.). Detection was performed using donkey anti-mouse Cy3 conjugated antibody (1:100 dilution, Jackson). Subsequently, specimens were incubated for 30 min at 37° C. with guinea pig anti-insulin antibody diluted 1:50 (Dako, Carpinteria, Calif.), followed by a 30 min incubation with a 1:20 dilution of fluorescein-conjugated rabbit anti-guinea pig antibody (Dako). For positive control of IL-1β staining, human mononuclear cells were isolated as described previously (37) and exposed for 2 h, 37° C. to 1 μg/ml lipopolysaccharide (Difco, Detroit, Ind.). […]

Series [2] has as its target T1, type II IL-1R (Homo sapiens, UniProt P27930).
T1 sequence (P27930 14-398): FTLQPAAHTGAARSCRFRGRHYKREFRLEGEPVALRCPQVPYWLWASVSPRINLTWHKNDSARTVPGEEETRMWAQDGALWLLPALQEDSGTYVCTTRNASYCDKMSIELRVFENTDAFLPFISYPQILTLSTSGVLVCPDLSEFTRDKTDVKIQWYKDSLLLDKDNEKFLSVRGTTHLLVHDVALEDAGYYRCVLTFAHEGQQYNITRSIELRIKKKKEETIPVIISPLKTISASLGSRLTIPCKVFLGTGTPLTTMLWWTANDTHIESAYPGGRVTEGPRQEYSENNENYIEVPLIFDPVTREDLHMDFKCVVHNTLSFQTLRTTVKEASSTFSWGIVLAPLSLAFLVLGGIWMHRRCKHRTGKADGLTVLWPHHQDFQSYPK
The following applies: read-out: Kd, binding to type II IL-1R; cited from earlier work.

Series [3] deals with human islets. As to the kind of experiment: Insulin release and content of human islets. The format is cell-based. The following applies: 33.3 mM glucose or IL-1β, 4 days. As for the experimental part: (§1) Islet isolation and culture. Islets were isolated from pancreases of eleven organ donors at the Department of Surgery, University of Geneva Medical Center, as described (32-34). The islet purity was >95%, as judged by dithizone staining (if this degree of purity was not primarily achieved by routine isolation, islets were handpicked). […] For long-term in vitro studies, the islets were cultured on extracellular matrix-coated plates derived from bovine corneal endothelial cells (Novamed Ltd., Jerusalem, Israel), allowing the cells to attach to the dishes and spread, preserving their functional integrity (7;35). Islets were cultured in CMRL 1066 medium containing 100 U/ml penicillin, 100 μg/ml streptomycin and 10% fetal calf serum (Gibco, Gaithersburg, Md.), hereinafter referred to as culture medium. Two days after plating, when most islets were attached and began to flatten, the medium was changed to culture medium containing 5.5, 11.1 or 33.3 mM glucose. In some experiments, islets were additionally cultured with 2 ng/ml recombinant human IL-1β, 1000 U/ml recombinant human IFNγ (ReproTech EC Ltd, London, UK), 500 ng/ml IL-1β receptor antagonist (IL-1Ra) (R&D Systems Inc., Minneapolis, Minn.), 1 ng/ml membrane bound Fas-ligand (FasL) (36) (upstate biotechnology, Lake Placid, N.Y.) or with 100 μM pyrrolidinedithiocarbamate (PDTC; Sigma; 2 h per 2 d of culture).
Insulin release and content. To determine acute insulin release in response to glucose stimulation, islets were washed in RPMI 1640 medium with 10% FCS and containing 3.3 mM glucose and pre-incubated for 1 h in the same medium. The medium was then discarded and replaced with fresh medium containing 3.3 mM glucose for 1 h for basal secretion, followed by an additional 1 h incubation in medium containing 16.7 mM glucose. Incubates were collected and frozen for insulin assays. […] Insulin was determined by a human insulin RIA kit (CIS bio international, Gif-Sur-Yvette, France).

Series [4] deals with iNOS. As to the kind of experiment: iNOS expression in human islets. The following applies: 33 mM glucose or IL-1β alone, 44 hours. The class given is cell-based. As for the experimental part: Western blot analysis. Islets were cultured in a culture medium in non-adherent plastic dishes. One day after isolation, the medium was changed and groups of 200 islets were incubated for 44 hours in culture medium containing 5.5 or 33.3 mM glucose without or with 2 ng/ml IL-1β or 500 ng/ml IL-1Ra. At the end of the incubations, islets were washed in PBS, suspended in 50 μl sample buffer containing 125 mM Tris-HCl, pH 6.8, 4% SDS, 10% glycerol, 0.3% bromphenol blue, 1.8% β-mercaptoethanol and boiled for 5 min. Equivalent amounts of each treatment group were run on 15% SDS polyacrylamide gels. […] Intensity of bands was analyzed using Multianalyst™ (Bio Rad, Laboratories inc., Hercules, Calif.).
RNA extraction, RT-PCR and sequencing of RT-PCR product. […] The conditions of the PCR amplification for IL-1β and Fas were: denaturation 30 seconds at 94° C., annealing 30 seconds at 60° C. and elongation 30 seconds at 72° C., followed for real time PCR by quantification 5 seconds at 80° C., 45 cycles. […] For quantitative analysis, we used the Light Cycler quantitative PCR system (Roche, Basel, Switzerland) and performed quantitative PCR with a commercial kit (Light Cycler-DNA Master SYBR Green I; Roche). […]

For series [5] the following is noted: in vivo; cited from earlier work.
For series [6], the system named is human islets β-cells. Description: β-cell apoptosis (TUNEL) and necrosis (propidium iodide) in human islets. The following applies: 33 mM glucose + exogenous FasL. The format is cell-based. Here is the method: as §1
β-cell apoptosis. The free 3-OH strand breaks resulting from DNA degradation were detected by the terminal deoxynucleotidyl transferase-mediated dUTP nick-end labeling (TUNEL) technique (38). After washing with PBS, cultured islets were fixed in 4% paraformaldehyde (30 min, room temperature) followed by permeabilisation with 0.5% triton X-100 (4 min, room temperature). The TUNEL assay was performed according to the manufacturer's instructions (In Situ Cell Death Detection Kit, AP; Boehringer Mannheim, Germany). […] The samples were immediately evaluated by fluorescence microscopy for positively stained […] nuclei.

[7] abbreviates: high-energy diet 8 days, 0.4 g/kg phlorizin every 12 h.

Turning to `O=C(CCc1ccc(O)cc1)c1c(O)cc(O)cc1O[C@@H]1O[C@H](CO)[C@@H](O)[C@H](O)[C@H]1O` [phlorizin], in series [1] (setting [7]), the “IL-1β expression in β-cells” value is “prevented IL-1β expression”, the “blood glucose (in words)” value is “Normalization of blood glucose” and the “insulin stores of islets” value is on record as “restored insulin stores”. In series [1] (high-energy diet for 8 days with injections of phlorizin), this molecule showed a blood glucose of 5.6 mM.
Interleukin-1β [IL-1β]: the Kd in series [2] is 0.3 to 2 nM. In series [3], the “acute glucose-stimulated insulin release after chronic exposure” value is listed as “abolished acute glucose-stimulated insulin release”. The “iNOS mRNA or protein expression” value in series [4] is reported as “Neither 33 mM glucose nor IL-1β alone induced iNOS mRNA”.
anakinra: the half-life in series [5] is 4 to 6 h.

B1: FasL: membrane bound Fas-ligand (protein, UniProt P48023 1-281, looked up)
chain: MQQPFNYPYPQIYWVDSSASSPWAPPGTVLPCPTSVPRRPGQRRPPPPPPPPPLPPPPPPPPLPPLPLPPLKKRGNHSTGLCLLVMFFMVLVALVGLGLGMFQLFHLQKELAELRESTSQMHTASSLEKQIGHPSPPPEKKELRKVAHLTGKSNSRSMPLEWEDTYGIVLLSGVKYKKGGLVINETGLYFVYSKVYFRGQSCNNLPLSHKVYMRNSKYPQDLVMMEGKMMSYCTTGQMWARSSYLGAVFNLTSADHLYVNVSELSLVNFEESQTFFGLYKL
modifications: full-length
Regarding B1, the “increase of TUNEL-positive β-cells compared to control at 5.5 mM glucose” value in series [6] is listed as 3.0+/−0.4 fold.
